Patent publication US20250127136A1, “NOVEL METHOD FOR PROMOTING NODULATION IN PLANTS” (UNIVERSITE TOULOUSE III-PAUL SABATIER, priority 2015, published 2025)

What was measured:
miR172c = test: Measurement of the expression of miR172c in roots of watered soybean plants (qRT-PCR); type: in vivo, Glycine max; settings: plants watered with miPEP172c at 0.1 μM vs control (FIG. 1) or 0.01 μM vs control peptide (FIG. 6)
Procedure: (§1) Each experiment was repeated from two to three times.
(§2) The plants are regularly watered with the “caisson” medium.
(§3) The treatments are performed every two days.

NNC1 = test: Expression of the gene NNC1 in roots of watered soybean plants (qRT-PCR); type: in vivo, Glycine max; settings: plants watered with miPEP172c at 0,01 μM vs control peptide at 0.01 μM (FIG. 6)
Procedure: as §1, §2, §3

NSP1 = settings: plants watered with miPEP172c at 0,01 μM vs control peptide at 0.01 μM (FIG. 6)
Procedure: (§4) After sterilisation of the grains for 3 min in bleach diluted ¼, then rinsing with sterile water, the grains are incubated for 2 hours in water. Lastly, the grains are placed in a petri dish with damp paper towels at 28° C. Once sprouted, the grains are placed in a small pot containing oil dry® medium under a glass cover. After a few days' growth, the plants of which the development is uniform are selected for the experiment and transferred into a larger pot.
(§5) The bacteria are placed in culture in Campbel liquid medium (K2PO4:0.5 g/l, MgSO4 7H2O: 0.2 g/l, NaCl: 0.1 g/l, mannitol: 10 g/l, yeast extract: 2.5 g/l, Casamino acid: 0.5 g/l) (5 ml) at 28° C., then transferred to an Erlenmeyer flask containing 100 ml of Campbel medium. After a few days of culture, when the DO is 0.3 at 595 nm, the 100 ml of culture of B. japonicum were centrifuged for 30 min at 4000 rpm. The supernatant was discarded and the pellet resuspended in “caisson” culture medium (Lullien et al., Plant gene expression in effective and ineffective root nodules of alfalfa (Medicago sativa). Plant Mol Biol 9: 469-478, 1987) to achieve a DO of 0.05 at 595 nm. Each plant is inoculated with 20 ml of this solution. The plants are regularly watered with the “caisson” medium.
(§6) The treatment is performed by watering plants with the concentrated solution of miPEP or the equivalent of solvent solution for the control treatment. […]

NIN = test: Expression of the gene NIN in roots of watered soybean plants (qRT-PCR); type: in vivo, Glycine max; settings: plants watered with miPEP172c at 0,01 μM vs control peptide at 0.01 μM (FIG. 6)
Procedure: as §1, §2, §3

ENOD40-1 = test: Expression of the gene ENOD40-1 in roots of watered soybean plants (qRT-PCR); type: in vivo, Glycine max; settings: plants watered with miPEP172c at 0,01 μM vs control peptide at 0.01 μM (FIG. 6)
Procedure: as §1, §2, §3

Hb2 = test: Expression of the gene Hb2 in roots of watered soybean plants (qRT-PCR); type: in vivo, Glycine max; settings: plants watered with miPEP172c at 0,01 μM vs control peptide at 0.01 μM (FIG. 6)
Procedure: as §1, §2, §3

nifH = test: Expression of the gene nifH in roots of watered soybean plants (qRT-PCR); type: in vivo, Glycine max; settings: plants watered with miPEP172c at 0,01 μM vs control peptide at 0.01 μM (FIG. 6)
Procedure: as §1, §2, §3

Glycine max [1] = test: Number of nodules in soybean plants inoculated with Bradirhizobium japonicum and watered with miPEP; type: in vivo; settings: watering with 0.1 μM miPEP vs solvent (FIGS. 2, 9) or control peptide (FIG. 5)
Procedure: as §4, §5, §6

Glycine max [2] = test: Nitrogen concentration in the aerial parts of soybean plants watered with miPEP; type: in vivo; settings: watering with 0.1 μM miPEP172c vs solvent (FIG. 3)
Procedure: The “nitrogen content” corresponds to the concentration of nitrogen in the plant or in part of the plant. For example, it can be the concentration of nitrogen in the aerial parts in g of nitrogen per kg of dry leaf weight. This concentration of nitrogen can be determined by techniques known to a person skilled in the art. For example, one method consists of burning a sample of known mass at an elevated temperature (approximately 900° C.) in the presence of oxygen, leading to a release of carbon dioxide, water, and nitrogen. The gases are then passed over particular columns (such as an aqueous potassium hydroxide solution), which absorb the carbon dioxide and water. A column containing a detector of thermal conductivity at the end is then used to separate the nitrogen from all residual carbon dioxide and the water, and the content of residual nitrogen is quantified.
as §2, §3

Glycine max [3] = test: Fresh pod weight of soybean plants watered with miPEP; type: in vivo; settings: watering with 0.1 μM miPEP172c vs solvent (FIG. 4)
Procedure: as §4, §5, §6

Glycine max [4] = test: Root mass (fresh root weight) of soybean plants watered with miPEP; type: in vivo; settings: watering with miPEP172c vs control peptide at 0.01 μM (FIG. 7)
Procedure: as §4, §5, §6

nifD = test: Expression of nifD revealed by nifD-LacZ fusions in nodules; type: in vivo, Glycine max; settings: nodules of plants treated with miPEP172c vs control peptide (FIGS. 6 and 8)
Procedure: as §4, §5, §6

Substance	relative expression of miR172c (miR172c)	relative expression of the gene NNC1 (NNC1)	relative expression of the gene NSP1 (NSP1)	relative expression of the gene NIN (NIN)	relative expression of the gene ENOD40-1 (ENOD40-1)	relative expression of the gene Hb2 (Hb2)	relative expression of the gene NifH (nifH)	number of nodules (per gram of fresh root weight) (Glycine max [1])	nitrogen content of the aerial parts (Glycine max [2])	fresh pod weight (Glycine max [3])	development of the roots (fresh root weight) (Glycine max [4])	fixation of nitrogen (NifH expression by RT-qPCR and nifD::LacZ fusions) (nifD)
miPEP172c: peptide MWVLCLFCWPTYTHGS coded by an open reading frame of the primary transcript of miR172c in Glycine max (SEQ ID NO: 2; Glycine max)	increases	reducing	increase	increase	increase	increase	increase	significantly increases	significantly increases	significantly increases	No effect	effective fixation of nitrogen
miPEP167c: peptide MKGVHHFFHHKYVGLRG coded by an open reading frame of the primary transcript of miR167c in Glycine max (Glycine max)								significantly increases				
